Experimental data as given in patent publication US20260234115A1, “LIPID COMPOUNDS, COMPOSITIONS, AND USES THEREOF” (Liberate Bio, Inc., priority 2023, published 2026).
Marks after values point to notes of the source that are not given here.

Test system: mouse organs
Test: In vivo activity screening in mice: organ mean total flux (p/s) of luciferase activity after injection of F2 LNP pools (Table 6, FIG. 7A-7C)
Settings: luciferase mRNA
Procedure: Small rodent biodistribution studies were performed in mice (e.g., C57BL/6J, Balb-c, CD-1, etc.). For evaluating LNP biodistribution and tissue activity upon systemic administration, C57BL/6J mice received dose administration by single intravenous injection via tail vein with LNP formulations (individual or pooled) in PBS, at different dose (0.25-3 mg/kg) levels of firefly luciferase mRNA. At predetermined time points (4-6 hours post-injection), the animals were anesthetized via isoflurane and subjected to in-life imaging sessions for bioluminescence using an In Vivo Imaging System (IVIS). All animals were dosed with D-Luciferin at 15 mg/mL via subcutaneous (SC) injection at 0.2 mL/animal. Animals had their abdomen hair shaved using an animal trimmer. They were then placed so their shaved belly faced up toward the IVIS camera. Whole body imaging sessions were performed 10-15 minutes following D-Luciferin administration.
For in detail organ distribution and activity of LNP formulations, ex vivo imaging sessions were also performed. All animals received SC D-Luciferin and were then euthanized by isoflurane overdose, followed by cardiac perfusion with saline. Following perfusion, the organs were collected and subjected to IVIS imaging for luminescence within 10-15 minutes of D-Luciferin injection.
All IVIS images were processed with a computer software to identify the regions of interests for individual organs to detect the total flux (p/s) values as luminescence quantification. Then the total flux values were graphed to evaluate the in vivo activity in each collected organ.
Small rodent biodistribution studies were performed in mice according to the General Study Protocols in Example 3(a). LNPs incorporating lipid compounds were prepared in Formulation F2, with MC3 as lipid compound (Cayman Chemical) prepared using Formulation F2 for comparison. LNP pools (with firefly luciferase mRNA encapsulated) were injected into mice at varying doses, and organ mean total flux (p/s) results (measuring luciferase activity) were then collected according to Example 3(a).
LNPs comprising MC3 used as a control and for cross-mouse comparison. Dose is in mg/kg; LC is Lipid Compound according to Table 1.
Additional screening results for Compounds 7, 13, 14, 26, 33, 38, 39, 40, 48, 60, 61, 89, 103, and 109 in spleen, femur, and muscle are shown in FIG. 7A, FIG. 7B, and FIG. 7C, with MC3 as a used as a control for comparison.

| Compound | Organ Mean Total Flux Femur (Mouse 11, dose 0.5 mg/kg) | Organ Mean Total Flux Heart (Mouse 11, dose 0.5 mg/kg) | Organ Mean Total Flux Kidney (Mouse 11, dose 0.5 mg/kg) | Organ Mean Total Flux Liver (Mouse 11, dose 0.5 mg/kg) | Organ Mean Total Flux Lung (Mouse 11, dose 0.5 mg/kg) | Organ Mean Total Flux Muscle (Mouse 11, dose 0.5 mg/kg) | Organ Mean Total Flux Pancreas (Mouse 11, dose 0.5 mg/kg) | Organ Mean Total Flux Spleen (Mouse 11, dose 0.5 mg/kg) | Organ Mean Total Flux Femur (Mouse 6, dose 0.5 mg/kg) | Organ Mean Total Flux Heart (Mouse 6, dose 0.5 mg/kg) | Organ Mean Total Flux Kidney (Mouse 6, dose 0.5 mg/kg) | Organ Mean Total Flux Liver (Mouse 6, dose 0.5 mg/kg) | Organ Mean Total Flux Lung (Mouse 6, dose 0.5 mg/kg) | Organ Mean Total Flux Muscle (Mouse 6, dose 0.5 mg/kg) | Organ Mean Total Flux Pancreas (Mouse 6, dose 0.5 mg/kg) | Organ Mean Total Flux Spleen (Mouse 6, dose 0.5 mg/kg) | other results |
| --- | --- | --- | --- | --- | --- | --- | --- | --- | --- | --- | --- | --- | --- | --- | --- | --- | --- |
| CCCCC/C=C\CCOC(=O)CCCCC(=O)OCC(COC(=O)CCCCC(=O)OCC/C=C\CCCCC)(COC(=O)CCCCC(=O)OCC/C=C\CCCCC)COC(=O)CCC(CCCCCC)OC(=O)NCCN1CCCC1 (centres unmarked) [Compound 13, O6-[2,2-bis[[6-[(Z)-non-3-enoxy]-6-oxo-hexanoyl]oxymethyl]-3-[4-(2-pyrrolidin-1-ylethylcarbamoyloxy)decanoyloxy]propyl]O1-[(Z)-non-3-enyl]hexanedioate] |  |  |  |  |  |  |  |  |  |  |  |  |  |  |  |  | Organ Mean Total Flux Femur (Mouse 12, dose 0.5 mg/kg): 4.8 p/s (×10^6); Organ Mean Total Flux Heart (Mouse 12, dose 0.5 mg/kg): 1.0 p/s (×10^6); Organ Mean Total Flux Kidney (Mouse 12, dose 0.5 mg/kg): 4.5 p/s (×10^6); Organ Mean Total Flux Liver (Mouse 12, dose 0.5 mg/kg): 620.0 p/s (×10^6); Organ Mean Total Flux Lung (Mouse 12, dose 0.5 mg/kg): 16.7 p/s (×10^6); Organ Mean Total Flux Muscle (Mouse 12, dose 0.5 mg/kg): 17.0 p/s (×10^6); Organ Mean Total Flux Pancreas (Mouse 12, dose 0.5 mg/kg): 1.1 p/s (×10^6); Organ Mean Total Flux Spleen (Mouse 12, dose 0.5 mg/kg): 21.3 p/s (×10^6) |
| CCCCC/C=C\CCOC(=O)CCCCC(=O)OCC(COC(=O)CCCCC(=O)OCC/C=C\CCCCC)(COC(=O)CCC(CCCCCC)OC(=O)NCCN1CCCC1)COC(=O)CCC(OCCCCCCCC)OCCCCCCCC (centres unmarked) [Compound 15, O6-[2-(4,4-dioctoxybutanoyloxymethyl)-2-[[6-[(Z)-non-3-enoxy]-6-oxo-hexanoyl]oxymethyl]-3-[4-(2-pyrrolidin-1-ylethylcarbamoyloxy)decanoyloxy]propyl]O1-[(Z)-non-3-enyl]hexanedioate] |  |  |  |  |  |  |  |  |  |  |  |  |  |  |  |  | Organ Mean Total Flux Femur (Mouse 13, dose 0.5 mg/kg): 1.3 p/s (×10^6); Organ Mean Total Flux Heart (Mouse 13, dose 0.5 mg/kg): 1.4 p/s (×10^6); Organ Mean Total Flux Kidney (Mouse 13, dose 0.5 mg/kg): 0.4 p/s (×10^6); Organ Mean Total Flux Liver (Mouse 13, dose 0.5 mg/kg): 992.3 p/s (×10^6); Organ Mean Total Flux Lung (Mouse 13, dose 0.5 mg/kg): 3.7 p/s (×10^6); Organ Mean Total Flux Muscle (Mouse 13, dose 0.5 mg/kg): 1.1 p/s (×10^6); Organ Mean Total Flux Pancreas (Mouse 13, dose 0.5 mg/kg): 0.1 p/s (×10^6); Organ Mean Total Flux Spleen (Mouse 13, dose 0.5 mg/kg): 1.6 p/s (×10^6) |
| CCCCC/C=C\CCOC(=O)CCCCCC(=O)OCC(COC(=O)CCCCCCOC(=O)C(CCCC)CCCCCC)(COC(=O)CCCCCCOC(=O)C(CCCC)CCCCCC)COC(=O)CCC(CCCCCC)OC(=O)NCCN1CCCC1 (centres unmarked) [Compound 17, O7-[2,2-bis[7-(2-butyloctanoyloxy)heptanoyloxymethyl]-3-[4-(2-pyrrolidin-1-ylethylcarbamoyloxy)decanoyloxy]propyl]O1-[(Z)-non-3-enyl]heptanedioate] |  |  |  |  |  |  |  |  |  |  |  |  |  |  |  |  | Organ Mean Total Flux Femur (Mouse 2, dose 1.0 mg/kg): 8.0 p/s (×10^6); Organ Mean Total Flux Heart (Mouse 2, dose 1.0 mg/kg): 13.0 p/s (×10^6); Organ Mean Total Flux Kidney (Mouse 2, dose 1.0 mg/kg): 7.6 p/s (×10^6); Organ Mean Total Flux Liver (Mouse 2, dose 1.0 mg/kg): 11856 p/s (×10^6); Organ Mean Total Flux Lung (Mouse 2, dose 1.0 mg/kg): 59.3 p/s (×10^6); Organ Mean Total Flux Muscle (Mouse 2, dose 1.0 mg/kg): 30.7 p/s (×10^6); Organ Mean Total Flux Pancreas (Mouse 2, dose 1.0 mg/kg): 3.0 p/s (×10^6); Organ Mean Total Flux Spleen (Mouse 2, dose 1.0 mg/kg): 5.5 p/s (×10^6) |
| CCCC/C=C\CCOC(=O)CCCCCCCC(=O)OCC(COC(=O)CCCCCCCC(=O)OCC/C=C\CCCC)(COC(=O)CCCCCCCC(=O)OCC/C=C\CCCC)COC(=O)CCC(CCCCCC)OC(=O)NCCN1CCCC1 (centres unmarked) [Compound 21, O9-[2,2-bis[[9-[(Z)-oct-3-enoxy]-9-oxo-nonanoyl]oxymethyl]-3-[4-(2-pyrrolidin-1ylethylcarbamoyloxy)decanoyloxy]propyl]O1-[(Z)-oct-3-enyl]nonanedioate] | 2.0 p/s (×10^6) | 0.8 p/s (×10^6) | 0.7 p/s (×10^6) | 818.7 p/s (×10^6) | 6.6 p/s (×10^6) | 4.1 p/s (×10^6) | 2.8 p/s (×10^6) | 2.0 p/s (×10^6) |  |  |  |  |  |  |  |  |  |
| CCCCCCCCCOC(=O)CCCCCCC(=O)OCC(COC(=O)CCCCCCC(=O)OCCCCCCCCC)(COC(=O)CCCCCCC(=O)OCCCCCCCCC)COC(=O)CCC(CCCCCC)OC(=O)NCCN1CCCC1 (centres unmarked) [Compound 23, O8-[2,2-bis[(8-nonoxy-8-oxo-octanoy)oxymethyl]-3-[4-(2-pyrrolidin-1-ylethylcarbamoyloxy)decanoyloxy]propyl]O1-nonyl octanedioate] | 1.2 p/s (×10^6) | 2.1 p/s (×10^6) | 1.2 p/s (×10^6) | 1727 p/s (×10^6) | 15.7 p/s (×10^6) | 3.0 p/s (×10^6) | 0.6 p/s (×10^6) | 1.7 p/s (×10^6) |  |  |  |  |  |  |  |  |  |
| CCCCCCCCCOC(=O)CCCCCC(=O)OCC(COC(=O)CCCCCC(=O)OCCCCCCCCC)(COC(=O)CCCCCC(=O)OCCCCCCCCC)COC(=O)CCC(CCCCCC)OC(=O)NCCN1CCCC1 (centres unmarked) [Compound 24, O7-[2,2-bis[(7-nonoxy-7-oxo-heptanoyl)oxymethyl]-3-[4-(2-pyrrolidin-1-ylethylcarbamoyloxy)decanoyloxy]propyl]O1-nonyl heptanedioate] |  |  |  |  |  |  |  |  | 6.3 p/s (×10^6) | 7.1 p/s (×10^6) | 5.7 p/s (×10^6) | 4153 p/s (×10^6) | 28.8 p/s (×10^6) | 12.1 p/s (×10^6) | 7.9 p/s (×10^6) | 10.7 p/s (×10^6) |  |
| CCCCC/C=C\CCOC(=O)CCCCCCC(=O)OCC(COC(=O)CCCCCCC(=O)OCC/C=C\CCCCC)(COC(=O)CCCCCCC(=O)OCC/C=C\CCCCC)COC(=O)CCC(CCCC)OC(=O)NCCN1CCCC1 (centres unmarked) [Compound 25, O8-[2,2-bis[[8-[(Z)-non-3-enoxy]-8-oxo-octanoyl]oxymethyl]-3-[4-(2-pyrrolidin-1-ylethylcarbamoyloxy)octanoyloxy]propyl]O1-[(Z)-non-3-enyl]octanedioate] |  |  |  |  |  |  |  |  | 4.4 p/s (×10^6) | 1.4 p/s (×10^6) | 5.9 p/s (×10^6) | 911.0 p/s (×10^6) | 12.5 p/s (×10^6) | 5.1 p/s (×10^6) | 14.3 p/s (×10^6) | 80.3 p/s (×10^6) |  |
| CCCCC/C=C\CCOC(=O)CCCCCC(=O)OCC(COC(=O)CCCCCC(=O)OCC/C=C\CCCCC)(COC(=O)CCCCCC(=O)OCC/C=C\CCCCC)COC(=O)CCC(CCCC)OC(=O)NCCN1CCCC1 (centres unmarked) [Compound 26, O7-[2,2-bis[[7-[(Z)-non-3-enoxy]-7-oxo-heptanoyl]oxymethyl]-3-[4-(2-pyrrolidin-1-ylethylcarbamoyloxy)octanoyloxy]propyl]O1-[(Z)-non-3-enyl]heptanedioate] | 20.0 p/s (×10^6) | 1.2 p/s (×10^6) | 4.4 p/s (×10^6) | 481.0 p/s (×10^6) | 26.9 p/s (×10^6) | 6.2 p/s (×10^6) | 8.2 p/s (×10^6) | 152.7 p/s (×10^6) |  |  |  |  |  |  |  |  |  |
| CCCCC/C=C\CCOC(=O)CCCCCCC(=O)OCC(COC(=O)CCCCCCC(=O)OCC/C=C\CCCCC)(COC(=O)CCCCCCC(=O)OCC/C=C\CCCCC)COC(=O)CCC(CCCCCCCC)OC(=O)NCCN1CCCC1 (centres unmarked) [Compound 27, O8-[2,2-bis[[8-[(Z)-non-3-enoxy]-8-oxooctanoyl]oxymethyl]-3-[4-(2-pyrrolidin-1-ylethylcarbamoyloxy)dodecanoyloxy]propyl]O1-[(Z)-non-3-enyl]octanedioate] | 1.1 p/s (×10^6) | 1.7 p/s (×10^6) | 1.2 p/s (×10^6) | 1441 p/s (×10^6) | 16.4 p/s (×10^6) | 2.0 p/s (×10^6) | 0.5 p/s (×10^6) | 1.0 p/s (×10^6) |  |  |  |  |  |  |  |  |  |
| CCCCC/C=C\CCOC(=O)CCCCCC(=O)OCC(COC(=O)CCCCCC(=O)OCC/C=C\CCCCC)(COC(=O)CCCCCC(=O)OCC/C=C\CCCCC)COC(=O)CCC(CCCCCCCC)OC(=O)NCCN1CCCC1 (centres unmarked) [Compound 28, O7-[2,2-bis[[7-[(Z)-non-3-enoxy]-7-oxo-heptanoyl]oxymethyl]-3-[4-(2-pyrrolidin-1-ylethylcarbamoyloxy)dodecanoyloxy]propyl]O1-[(Z)-non-3-enyl]heptanedioate] |  |  |  |  |  |  |  |  | 3.5 p/s (×10^6) | 0.5 p/s (×10^6) | 0.9 p/s (×10^6) | 278.3 p/s (×10^6) | 10.4 p/s (×10^6) | 11.6 p/s (×10^6) | 0.8 p/s (×10^6) | 3.5 p/s (×10^6) |  |
